From patent publication US20230072683A1, “PYRIDO-PYRIMIDIN DERIVATIVES AND PHARMACEUTICAL COMPOSITION, FOR USE IN PREVENTING OR TREATING PI3 KINASE RELATED DISEASES, COMPRISING SAME AS ACTIVE INGREDIENT” (BORYUNG PHARMACEUTICAL CO., LTD, priority 2019, published 2023)

Columns and labels:
DNA-PK(h) = DNA-PK(h) (Homo sapiens, UniProt P78527); assay: Evaluation of inhibitory activity against DNA-PK (HTRF kinase assay, GST-cMyc-p53 substrate); assay type: biochemical; details: for inhibition at 0.01 µM: compound concentration 0.01 μM, read-out: EXP_VALUE(% Inhibition) DNA-PK(h) 0.01 μM; for inhibition at 0.1 µM: compound concentration 0.1 μM, read-out: EXP_VALUE(% Inhibition) DNA-PK(h) 0.1 μM
Summary of the method: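 Human DNA-PK with 50 μM GST-cMyc-p53 substrate; reaction started with Mg/ATP, run 30 min at room temperature, stopped with EDTA. Phospho-Ser15 p53 detected by HTRF (Eu anti-phospho-Ser15, d2 anti-GST), signal = 10000×(Em 665/Em 620).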

[1] = biological target: PI3K-δ (PI3K(p1108/p857) (h)) (Homo sapiens, UniProt O00329); assay: Evaluation of inhibitory activity against PI3K-δ (HTRF kinase assay); assay type: biochemical; details: for inhibition at 0.01 µM: compound concentration 0.01 μM, read-out: EXP_VALUE(% Inhibition) PI3K-δ 0.01 μM; for inhibition at 0.1 µM: compound concentration 0.1 μM, read-out: EXP_VALUE(% Inhibition) PI3K-δ 0.1 μM
Summary of the method: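 HTRF read-out (665/620 nm ratio ×10000) used Eu-labelled anti-GST, GST-tagged GRP1 PH domain and streptavidin-allophycocyanin after EDTA/PIP3 stop.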

Sequence of PI3K-δ (PI3K(p1108/p857) (h)) (O00329 whole entry, the tested form may be a part): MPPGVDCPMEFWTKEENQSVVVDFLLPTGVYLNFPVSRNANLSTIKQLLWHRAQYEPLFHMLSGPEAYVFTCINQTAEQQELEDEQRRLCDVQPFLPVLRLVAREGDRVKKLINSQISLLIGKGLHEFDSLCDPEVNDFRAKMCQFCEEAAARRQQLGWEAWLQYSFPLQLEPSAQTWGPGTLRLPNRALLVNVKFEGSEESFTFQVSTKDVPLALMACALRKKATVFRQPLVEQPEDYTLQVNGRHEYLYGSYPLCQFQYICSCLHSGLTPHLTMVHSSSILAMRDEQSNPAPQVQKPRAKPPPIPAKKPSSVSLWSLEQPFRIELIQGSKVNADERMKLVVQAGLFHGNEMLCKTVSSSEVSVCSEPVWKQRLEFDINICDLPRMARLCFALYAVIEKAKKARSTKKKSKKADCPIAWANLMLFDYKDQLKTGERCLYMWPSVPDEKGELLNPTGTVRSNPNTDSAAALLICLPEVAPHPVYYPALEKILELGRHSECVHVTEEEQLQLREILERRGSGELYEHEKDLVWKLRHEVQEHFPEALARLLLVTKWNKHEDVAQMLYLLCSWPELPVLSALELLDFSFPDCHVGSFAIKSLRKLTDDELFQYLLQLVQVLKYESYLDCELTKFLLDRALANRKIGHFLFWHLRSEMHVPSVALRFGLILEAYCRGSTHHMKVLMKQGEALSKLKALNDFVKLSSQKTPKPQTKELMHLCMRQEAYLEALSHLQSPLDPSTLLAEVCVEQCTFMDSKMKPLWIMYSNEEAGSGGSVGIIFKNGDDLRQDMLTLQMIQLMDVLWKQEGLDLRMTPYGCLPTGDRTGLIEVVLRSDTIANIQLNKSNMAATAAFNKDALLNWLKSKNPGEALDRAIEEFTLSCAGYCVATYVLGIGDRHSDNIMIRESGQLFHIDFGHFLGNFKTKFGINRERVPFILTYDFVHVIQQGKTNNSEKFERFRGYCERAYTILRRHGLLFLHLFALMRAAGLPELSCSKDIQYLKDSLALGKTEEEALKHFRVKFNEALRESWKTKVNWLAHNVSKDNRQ
Sequence of PI3K-δ (PI3K(p1108/p857) (h)) (P27986 whole entry partner, the tested form may be a part): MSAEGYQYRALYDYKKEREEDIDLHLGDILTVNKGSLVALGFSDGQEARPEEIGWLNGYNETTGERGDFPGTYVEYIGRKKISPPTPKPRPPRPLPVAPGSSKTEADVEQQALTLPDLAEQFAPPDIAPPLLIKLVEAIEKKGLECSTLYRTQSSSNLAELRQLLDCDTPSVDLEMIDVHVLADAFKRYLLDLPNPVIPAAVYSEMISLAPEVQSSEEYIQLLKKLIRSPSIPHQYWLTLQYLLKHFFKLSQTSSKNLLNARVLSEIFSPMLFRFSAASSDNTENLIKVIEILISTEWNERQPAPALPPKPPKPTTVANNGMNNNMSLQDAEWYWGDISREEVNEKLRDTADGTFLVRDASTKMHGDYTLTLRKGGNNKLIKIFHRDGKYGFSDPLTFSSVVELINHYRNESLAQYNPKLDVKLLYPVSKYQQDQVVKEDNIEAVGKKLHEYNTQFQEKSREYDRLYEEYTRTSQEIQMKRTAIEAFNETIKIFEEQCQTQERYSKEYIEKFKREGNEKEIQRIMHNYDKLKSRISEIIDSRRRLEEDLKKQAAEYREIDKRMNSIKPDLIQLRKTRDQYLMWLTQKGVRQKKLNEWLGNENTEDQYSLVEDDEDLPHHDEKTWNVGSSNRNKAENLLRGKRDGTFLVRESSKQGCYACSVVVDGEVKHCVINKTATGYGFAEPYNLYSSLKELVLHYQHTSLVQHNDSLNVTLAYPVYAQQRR

SMILES	inhibition at 0.01 µM (DNA-PK(h)) [%]	inhibition at 0.1 µM (DNA-PK(h)) [%]	inhibition at 0.01 µM [1] [%]	inhibition at 0.1 µM [1] [%]
C[C@H](Nc1ncnc2[nH]ccc(=O)c12)c1c(Cl)c2cccc(-c3ccc4ncn(C)c4c3)c2c(=O)n1-c1ccccc1 [Example 111, (S)-4-((1-(4-chloro-8-(1-methyl-1H-benzo[d]imidazol-6-yl)-1-oxo-2-phenyl-1,2-dihydroisoquinolin-3-yl)ethyl)amino)pyrido[2,3-d]pyrimidin-5(8H)-one]	87	98	80	96
C[C@H](Nc1ncnc2[nH]ccc(=O)c12)c1c(Cl)c2cccc(-c3cnc(N(C)C)nc3)c2c(=O)n1-c1ccccc1 [Example 112, (S)-4-((1-(4-chloro-8-(2-(dimethylamino)pyrimidin-5-yl)-1-oxo-2-phenyl-1,2-dihydroisoquinolin-3-yl)ethyl)amino)pyrido[2,3-d]pyrimidin-5(8H)-one]	78	97	92	96
C[C@H](Nc1ncnc2[nH]ccc(=O)c12)c1c(Cl)c2cccc(-c3ccc4nccn4c3)c2c(=O)n1-c1ccccc1 [Example 113, (S)-4-((1-(4-chloro-8-(imidazo[1,2-a]pyridin-6-yl)-1-oxo-2-phenyl-1,2-dihydroisoquinolin-3-yl)ethyl)amino)pyrido[2,3-d]pyrimidin-5(8H)-one]	79	98	82	93
C[C@H](Nc1ncnc2[nH]ccc(=O)c12)c1c(Cl)c2cccc(-c3ccc4c(c3)ncn4C)c2c(=O)n1-c1ccccc1 [Example 114, (S)-4-((1-(4-chloro-8-(1-methyl-1H-benzo[d]imidazol-5-yl)-1-oxo-2-phenyl-1,2-dihydroisoquinolin-3-yl)ethyl)amino)pyrido[2,3-d]pyrimidin-5(8H)-one]	77	97	87	95
C[C@H](Nc1ncnc2[nH]ccc(=O)c12)c1c(Cl)c2cccc(-c3ccc(-c4ccccc4)nc3)c2c(=O)n1-c1ccccc1 [Example 115, (S)-4-((1-(4-chloro-1-oxo-2-phenyl-8-(6-phenylpyridin-3-yl)-1,2-dihydroisoquinolin-3-yl)ethyl)amino)pyrido[2,3-d]pyrimidin-5(8H)-one]	15	72	78	96
C[C@H](Nc1ncnc2[nH]ccc(=O)c12)c1c(Cl)c2cccc(-c3ccc4c(ccn4C)c3)c2c(=O)n1-c1ccccc1 [Example 116, (S)-4-((1-(4-chloro-8-(1-methyl-1H-indol-5-yl)-1-oxo-2-phenyl-1,2-dihydroisoquinolin-3-yl)ethyl)amino)pyrido[2,3-d]pyrimidin-5(8H)-one]	32	91	73	101
C[C@H](Nc1ncnc2[nH]ccc(=O)c12)c1c(Cl)c2cccc(-c3ccco3)c2c(=O)n1-c1ccccc1 [Example 117, (S)-4-((1-(4-chloro-8-(furan-2-yl)-1-oxo-2-phenyl-1,2-dihydroisoquinolin-3-yl)ethyl)amino)pyrido[2,3-d]pyrimidin-5(8H)-one]	86	99	82	89
C[C@H](Nc1ncnc2[nH]ccc(=O)c12)c1c(Cl)c2cccc(-c3ccc(C4CCC4)cc3)c2c(=O)n1-c1ccccc1 [Example 118, (S)-4-((1-(4-chloro-8-(4-cyclobutylphenyl)-1-oxo-2-phenyl-1,2-dihydroisoquinolin-3-yl)ethyl)amino)pyrido[2,3-d]pyrimidin-5(8H)-one]	26	74	29	81
Cc1cncc(-c2cccc3c(Cl)c([C@H](C)Nc4ncnc5[nH]ccc(=O)c45)n(-c4ccccc4)c(=O)c23)c1 [Example 119, (S)-4-((1-(4-chloro-8-(5-methylpyridin-3-yl)-1-oxo-2-phenyl-1,2-dihydroisoquinolin-3-yl)ethyl)amino)pyrido[2,3-d]pyrimidin-5(8H)-one]	96	101	84	82
C[C@H](Nc1ncnc2[nH]ccc(=O)c12)c1c(Cl)c2cccc(-c3ccc4c(c3)OCCN4)c2c(=O)n1-c1ccccc1 [Example 120, (S)-4-((1-(4-chloro-8-(3,4-dihydro-2H-benzo[b][1,4]oxazin-7-yl)-1-oxo-2-phenyl-1,2-dihydroisoquinolin-3-yl)ethyl)amino)pyrido[2,3-d]pyrimidin-5(8H)-one]	72	98	65	95
C[C@H](Nc1ncnc2[nH]ccc(=O)c12)c1c(Cl)c2cccc(-c3ccc4ncccc4c3)c2c(=O)n1-c1ccccc1 [Example 121, (S)-4-((1-(4-chloro-1-oxo-2-phenyl-8-(quinolin-6-yl)-1,2-dihydroisoquinolin-3-yl)ethyl)amino)pyrido[2,3-d]pyrimidin-5(8H)-one]	76	98	84	95
C[C@H](Nc1ncnc2[nH]ccc(=O)c12)c1c(Cl)c2cccc(-c3ccccc3F)c2c(=O)n1-c1ccccc1 [Example 122, (S)-4-((1-(4-chloro-8-(2-fluorophenyl)-1-oxo-2-phenyl-1,2-dihydroisoquinolin-3-yl)ethyl)amino)pyrido[2,3-d]pyrimidin-5(8H)-one]	61	92	68	88
C[C@H](Nc1ncnc2[nH]ccc(=O)c12)c1c(Cl)c2cccc(-c3cccc(F)c3)c2c(=O)n1-c1ccccc1 [Example 123, (S)-4-((1-(4-chloro-8-(3-fluorophenyl)-1-oxo-2-phenyl-1,2-dihydroisoquinolin-3-yl)ethyl)amino)pyrido[2,3-d]pyrimidin-5(8H)-one]	58	93	66	94
C[C@H](Nc1ncnc2[nH]ccc(=O)c12)c1c(Cl)c2cccc(-c3cc(F)cc(F)c3)c2c(=O)n1-c1ccccc1 [Example 124, (S)-4-((1-(4-chloro-8-(3,5-difluorophenyl)-1-oxo-2-phenyl-1,2-dihydroisoquinolin-3-yl)ethyl)amino)pyrido[2,3-d]pyrimidin-5(8H)-one]	44	86	83	99
C[C@H](Nc1ncnc2[nH]ccc(=O)c12)c1c(Cl)c2cccc(-c3ccc4[nH]cnc4c3)c2c(=O)n1-c1ccccc1 [Example 125, (S)-4-((1-(8-(1H-benzo[d]imidazol-5-yl)-4-chloro-1-oxo-2-phenyl-1,2-dihydroisoquinolin-3-yl)ethyl)amino)pyrido[2,3-d]pyrimidin-5(8H)-one]	79	97	68	95
